# Data from patent US20250236530A1, “ACCELERATED TOOTH REMINERALIZATION TECHNOLOGY” (Creighton University, priority 2022, published 2025).
# Where two headings read alike, the source gives them in different places.
# Assays:
# [1] = for initial conductivity reading at 3 seconds: first reading 3 seconds; for percent of NaF dissolved in the first 3 seconds: from conductivity; for percent of salt dissolved in first 3 seconds: room temperature, FIG. 5; for 3 sec Dissolution: Table 4, 3 sec; for 200 sec Dissolution: Table 4, 200 sec; for 400 sec Dissolution: Table 4, 400 sec; for 800 sec Dissolution: Table 4, 800 sec
# Procedure: Such a test is a standard test that is well understood in the scientific community. In this experiment, at room temperature, 35 mg of commercially available solid cubic sodium fluoride was added to a beaker. A conductivity probe was placed into the beaker. 25 mL of ultrapure water was added to the beaker, instantaneously submerging the conductivity probe. Conductivity data can be collected every 3 seconds on the probe.
# This is tested by adding to a beaker 56 mg of the given salt to be tested. To this is added a conductivity probe. As the salt is added, the solution is stirred.
# The dissolution rate of NaF crystals correlates to the conductivity of NaF in solution. That is to say, as salt dissolves in water, the conductivity of the salt solution increases. […] Conductivity is utilized to test the rate of dissolution. The conductivity of ultrapure water is approximately […] when no ions are present. The first reading on the conductivity meter can be made 3 seconds after the experiment begins.
# [2] = Surface area (BET method) normalized to mass; assay type: physicochemical
# Excerpt: Further characterization of the HSA NaF crystals compared to the solid cubic commercially available crystals of sodium fluoride examined the surface area (BET method) normalized to the mass of the crystals. […] Use of either of the Hall density of the surface area normalized to mass allows for a quantitative mechanism to differentiate the crystal formation.
# [3] = Hall density (ASTM Standard B212-99)
smiles,measurement,setting,value
"[F-].[Na+] [85% ethanol formulation, sodium fluoride]",initial conductivity reading at 3 seconds,[1]; FIG. 7A,"2,068 μS/cm"
same,percent of NaF dissolved in the first 3 seconds,[1]; FIG. 7A,approximately 79%
"[F-].[Na+] [HSA NaF crystals, sodium fluoride]",percent of salt dissolved in first 3 seconds,"[1]; 35 mg in 25 mL ultrapure water, listed as HSA crystal NaF",approximately 90%
same,3 sec Dissolution,[1]; listed as High Surface Area,"~2,600"
same,200 sec Dissolution,[1]; listed as High Surface Area,"~2,625"
same,400 sec Dissolution,[1]; listed as High Surface Area,"~2,700"
same,800 sec Dissolution,[1]; listed as High Surface Area,"~2,750"
same,rate of dissolution in aqueous environment compared with commercial cubic crystals,[1]; conductivity as a function of time,greater rate than commercially available cubic crystals
same,time to reach virtual maximum release,[1]; dissolution in water,3 s
same,surface area to mass ratio,[2]; listed as hopper crystals,0.22±0.04 m^2/g
same,Hall density,[3]; listed as HSA NaF hopper crystals,0.68 ± 0.04 g/mL
"[F-].[Na+] [commercial NaF, sodium fluoride]",percent of salt dissolved in first 3 seconds,"[1]; 35 mg in 25 mL ultrapure water, listed as commercially available solid cubic sodium fluoride",approximately 33%
same,conductivity after all of the salt dissolved,[1]; FIG. 7A,"2,605 μS/cm"
same,time before all the NaF dissolved,[1]; FIG. 7A,About 500 seconds
same,initial conductivity reading at 3 seconds,[1]; FIG. 7A,"1,127 μS/cm"
same,percent of NaF dissolved in the first 3 seconds,[1]; FIG. 7A,~43%
same,3 sec Dissolution,[1]; listed as Ordinary,"~1,000"
same,200 sec Dissolution,[1]; listed as Ordinary,"~1,175"
same,400 sec Dissolution,[1]; listed as Ordinary,"~1,500"
same,800 sec Dissolution,[1]; listed as Ordinary,"~2,500"
same,time for ordinary crystal to reach the concentration of HSA crystal's virtual maximum release,[1]; dissolution in water,more than ten minutes
same,surface area to mass ratio,[2]; listed as commercial crystals,0.12±0.02 m^2/g
same,Hall density,[3]; listed as Commercial solid cubic crystals of sodium fluoride,0.86 ± 0.03 g/mL
[F-].[Na+] [crystals made from precipitation into 90% ethanol] [sodium fluoride],percent of NaF dissolved in the first 3 seconds,[1]; FIG. 7A,60%
[F-].[Na+] [sodium fluoride],peak conductivity of sodium fluoride solution,[1]; 35 mg in 25 mL ultrapure water,"approximately 3,000 μS/cm"
